Patent US9453050B2, “Compositions for treating glioma” (GLIA SP Z.O.O., priority 2011, dated 2016)

What was measured:
microglia cells [1] = test: Real-Time PCR of M2 phenotype markers and iNOS in microglia treated with U87-MG GCM plus peptides; type: cell-based, mouse; details: 500 μM peptide in GCM, 6 h
Description: (§1) Total RNA (2 μg) isolated from microglia cultures untreated or treated for 6 h with LPS or G-CM was used as a template to generate cDNA. As endogenous control 18S (Hs99999901_s1) rRNA was applied. Gene expression quantification was performed using the Applied Biosystem TaqMan® The real time amplifications were performed in duplicates in a 20 μl reaction volume containing 2×SYBR PCR MasterMix and a set of primers designed using PRIMER EXPRESS software for the following genes: iNOS, COX-2, II1beta, TNF alpha, MMP-2, MMP-9, MMP-14, Arg1, Id1 and c-Myc. The amount of target mRNA was first normalized to the 18S RNA expression level and then to a control. Data were analysed by the Relative Quantification (^ΔΔCt) method using 7500 System SDS software (Applied Biosystems). The expression of each product was normalized to 18S rRNA and is shown as the ratio of the target gene to 18S gene expression, calculated by 2^−ΔΔCt.
U87-MG human glioma cells were plated on 100 mm culture dishes in a total volume of 8 mL culture medium for 24 h. […]
The expression level of genes that were previously identified as markers of the M2 microglia/macrophage phenotype (see FIG. 4.) such as: Arg1, Id1, c-Myc and MMP-14 was determined using Real-Time PCR. Likewise, the expression level of iNOS was determined to evaluate induction of an immune response. […]

[2] = tested on: rat primary microglia cultures; test: GCM-induced amoeboid transformation of microglia (F-actin staining); type: cell-based; details: pre-incubation with 500 μM peptide; FIG. 6A
Description: Cell culture and treatment. Primary cultures of rat microglia were prepared from 1-day-old Wistar rat pups as described previously (Zawadzka and Kaminska 2003). Briefly, cells were isolated from cerebral cortices by trypsination, mechanically dissociated and plated at the density of 3×10^5 cells/cm^2 in Dulbecco's modified Eagle medium (with Glutamax and high-glucose formula 4.5 g/L, Gibco) supplemented with heat-inactivated 10% fetal bovine serum (Gibco), 100 U/mL penicillin, and 0.1 mg/mL streptomycin on poly-L-lysine coated culture 75 cm^2 flasks. Murine pEGFP-GL261 glioma cells were cultured in DMEM with 10% FBS and antibiotics (50 U/ml penicillin, 50 μg/ml streptomycin). Primary cultures of astrocytes were prepared from cerebral cortex of 2-day-old C57BL/6 newborn mice. Astrocytes were cultured in DMEM media with high glucose supplemented with 10% FBS, 100 U/ml penicillin and 100 μg/ml streptomycin. Culture medium was changed after 3 days and then twice a week. Cell cultures were maintained at 37° C. in humidified 5% CO2/95% air incubator (Heraeus, Hanau, Germany). […]
Cells were washed with a phosphate buffer saline (PBS) and fixed with 2% paraformaldehyde at indicated time periods. […] Morphological alterations were monitored by fluorescent microscopy with excitation 450-490 nm, recorded with 20× objective. […]

[3] = tested on: rat primary microglia cultures; test: Scratch assay of microglia motility; type: cell-based; details: GCM with RGD inhibitor; FIG. 6C
Description: Microglia were platted on a 35 mm Petri dish at the density of 1.5×10^6 cells and after 48 hours the cultures were gently scratched using a pipette tip and microglia cells were cultured under various experimental conditions (control, 100 ng/mL LPS or G-CM). Motility of microglia cells was determined 3 hours after treatment. Migrating cells were visualized by phase-contrast microscopy.
Using the rat lactadherin amino acid sequence, a 7-aa RGD-containing peptide (RGD) was designed as a competitive inhibitor (set forth in SEQ ID NO: 18). A scrambled sequence peptide was used as a control (SCR). Pre-incubation with the chemically synthesized 500 μM RGD peptide, but not with the SCR peptide, prevented transformation of microglia into amoeboid cells following GCM induction (amoeboid cells indicated with arrows) (FIG. 6A).

[4] = tested on: phosphorylated FAK, Akt and ERK in microglia cells; test: Immunoblotting of phosphorylated kinases in GCM-treated microglia; type: cell-based, rat; details: pre-treatment with peptide; FIG. 6E
Description: Whole cell lysates were prepared by scraping the cells into the buffer containing phosphatase and protease inhibitors (20 mM Tris HCl, pH6.8, 137 mM sodium chloride, 25 mM β-glycerophosphate, 2 mM sodium pyrophosphate, 2 mM EDTA, 1 mM sodium orthovanadate, 1% Triton X-100, 10% glycerol, 5 μg/ml leupeptin, 5 μg/ml aprotinin, 2 mM benzamidine, 0.5 mM DTT, 1 mM PMSF). The protein concentration was determined with the Bradford assay (Sigma-Aldrich, Saint Louis, Mo., USA). Protein extracts were separated on SDS-PAGE before electrophoretic transfer onto a nitrocellulose membrane (Amersham Biosciences, Germany) as described (Ellert-Miklaszewska et al. 2005; Sliwa et al. 2007). After blocking with 5% non-fat milk in TBS-T (Tris-buffered saline pH 7.6/0.15% Tween 20) the membranes were incubated with primary antibodies diluted in a blocking buffer overnight and then with relevant secondary antibodies for one hour. Antibodies recognizing phosphorylated and total forms of p38, ERK1/2, JNK, STAT1, STAT3, STATS, AKT, FAK and IκB as well as Cox-2 (all diluted 1:1000) and horseradish peroxidase-conjugated anti-rabbit IgG (diluted 1:2000) were purchased from Cell Signaling Technology (Beverly, Mass., USA); iNOS (diluted 1:2000) from BD Biosciences (Bedford, Mass., USA). Immunocomplexes were visualized by using ECL (Amersham). […]

[5] = tested on: rat primary microglia cultures; test: Phagocytosis of fluorescent beads by GCM-treated microglia; type: cell-based; details: 500 μM peptide; FIG. 6B
Description: Microglia cells (1×10^5) were seeded on 24-wells plates and after 24 hours cells were transfected with 25 nM control non-targeting siRNA, and siRNA to αv or β3, or two siRNA together (ON-TARGET siRNA, Dharmacon) using 0.25 μl of DharmaFECT 3 transfection reagent in 0.5 ml culture medium. After 48 h the transfection medium was replaced by G-CM and phagocytic properties of microglia were determined as described. To estimate the silencing efficiency cells were removed from the culture plates by trypsynization and suspended in MACS buffer (PBS, 2 mM EDTA, 0.5% BSA) at final concentration 1×10^5 cells/100 μl. Cell surface expression of the integrins was analysed using primary antibodies to αv or β3 (BD Biosciences) and anti-mouse-Alexa Fluor 647 secondary antibody (Invitrogen). The fluorescent intensity of the labelled cells was analysed with FACSCalibur (Beckton Dickinson). The mean fluorescent intensity was compared with the control siRNA and expressed as the relative change to the control condition for each experimental siRNA.
Phagocytic properties of microglia were determined by incubation of cells with 2 μm fluorescent latex beads (Sigma-Aldrich, Saint Louis, Mo., USA) for 90 min. […] The percentage of cells with none/low (<2 beads per cell), medium (≧2<10) or high (≧10 beads per cell) phagocytic activity was counted. […]

microglia cells [6] = test: qPCR of GCM-induced genes in microglia exposed to GCM of shRNA-expressing C6 glioma cells; type: cell-based, rat; details: FIG. 7B
Description: as §1
To investigate the role of identified proteins in GCM-induced activation of microglia cells, stable C6 glioma cell lines expressing shRNAs specific to osteopontin (shSPP1), or a control, negative shRNA (shNeg) were generated. Silencing efficiency was approximately 98.5% (FIGS. 7A and C). Silencing of […] inhibited GCM-induced expression c-Myc and smad7 in microglia cells (FIG. 7B). […]

Molecule: DGRGDSV (SYNTHTIC PEPTIDE) [OPN inhibiting peptide]
- Id1 expression level (M2 marker) (microglia cells [1]; FIG. 17B-C): down-regulated
- Arg1 expression level (M2 marker) (microglia cells [1]; vs control peptide, FIG. 17A): down-regulated

Molecule: DQIGFRT [SCR peptide, reference compound]
- transformation of microglia into amoeboid cells following GCM induction [2]: not

Molecule: TQRGDIF [RGD peptide]
- microglia migration in a scratch assay [3]: completely blocked
- transformation of microglia into amoeboid cells following GCM induction [2]: prevented
- activation of phosphorylated FAK, Akt and ERK kinases by GCM [4]: abolished
- GCM-induced phagocytosis [5]: completely blocked

B1: lactadherin shRNA: shRNA to rat lactadherin, oligonucleotides SEQ ID NO: 25 and 26, stably expressed in C6 glioma cells (nucleic acid)
chain 1: GATCCGGATGAAAGCGGAACCGGATTCAAGAGATCCGGTTCCGCTTTCATCCTGTTTTTTGGAAA
chain 2: AGCTTTTCCAAAAAACAGGATGAAAGCGGAACCGGATCTCTTGAATCCGGTTCCGCTTTCATCCG
modifications: the letters are possibly those of the target site
- GCM-induced expression c-Myc and smad7 in microglia cells (microglia cells [6]): inhibited
